The values below come from PubChem BioAssay (NCI).

Common to all, as to test: NCI tumour cell line growth inhibition, 48 h
In test [1] the test system is SF-295 CNS.
The test system of test [2] is HCT-15 colon.
Test [3] deals with MOLT-4 leukemia.
In test [4] the test system is MCF7 breast.
Test [5] concerns A498 renal.
In test [6] the test system is TK-10 renal.
Test [7] deals with RPMI-8226 leukemia.
The test system of test [8] is T-47D breast.
For test [9], the system named is NCI/ADR-RES ovarian.
For test [10], the system named is K-562 leukemia.
Test [11] deals with LOX IMVI melanoma.

“And” between values parts separate entries of the source, which are not always exact repeats. Equal values may be shown once.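 Values below derive from 48-hour exposures of cells grown in 96-well plates, with endpoints linearly interpolated between the two concentrations bracketing the appropriate inhibition level. At the GI50, growth is halved. TGI is the concentration that stops growth completely.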 Where only a bound is given, the exact number is not on record here.

As for `COC1/C=C(C)/C=C/C(C)/C=C/C(=O)OC(/C(C)=C/C=C(\C)CNC(=O)[C@H](CO)NC=O)C(C)/C=C/C=C/C(OC)CC/C=C(C)/C=C/C1` (stereo not given in full), the TGI is 0.0534 µM in [1]; greater than 1 µM in test [2]; greater than 0.611 µM in [3]; greater than 1 µM in [4]; greater than 1 µM in test [5]; greater than 1 µM in test [6]. Also, the TGI was 0.0769 µM in [7]; greater than 1 µM in test [8]; greater than 0.724 µM in test [9]; 0.0472 µM in test [10]; greater than 1 µM in [11].
Regarding `Cc1ccc([N+](=O)[O-])cc1S(=O)(=O)Nc1ccc(C2=NN(S(=O)(=O)c3cc([N+](=O)[O-])ccc3C)C(c3ccccc3)C2)cc1` (stereo not given), the TGI in [1] was greater than 100 µM; in test [2], greater than 100 µM; in [3], greater than 100 µM; in test [4], greater than 100 µM; in test [5] it was 82.6 µM; in test [6], greater than 100 µM. The TGI was 76.1 µM in test [7]; greater than 100 µM in [8]; 81.1 µM in test [9]; greater than 100 µM in [10]; greater than 100 µM in test [11].
In the case of `CCCCN1C(=O)C2Cc3c([nH]c4ccccc34)C(c3cccc(O)c3)N2C1=O` (stereo not given), the TGI in test [1] amounted to 31.9 µM; in test [2], 37.2 µM; in test [3], 69.6 µM; in test [4], 36.2 µM; in test [5], 32.8 µM; in test [6], 33.6 µM. In addition, the TGI was determined as 51.2 µM in test [7]; 51.9 µM in test [8]; 36.2 µM in [9]; 47.5 µM in test [10]; 32.2 µM in [11].
For `C[C@H]1C[C@@H]2[C@H]([C@@H](O)C[C@@]3(C)[C@H]2CC[C@]3(O)C(=O)CO)[C@@]2(C)C=CC(=O)C=C12`, the TGI in test [2], in test [3], in [5], in test [6], in [7] and in test [10] was greater than 100 µM in each case. This molecule came in with a TGI in test [11] greater than 100 µM.
As to `CC(=O)Oc1ccccc1`, the TGI in [1], in test [2], in test [3], in test [5], in test [7] and in test [10] was greater than 100 µM each time. The molecule also returned a TGI in [11] greater than 100 µM.
Turning to `COc1cc(C(=O)NC2CCc3cc(OC)c(OC)c(OC)c3-c3ccc(OC)c(=O)cc32)cc(OC)c1OC` (stereo not given), the TGI in [1] is 13 µM; in [2], greater than 100 µM; in [3], 43.2 µM; in [4], greater than 100 µM; in test [5], 8.44 µM; in [6], greater than 91.6 µM. The TGI was 27.4 µM in test [7]; greater than 100 µM in test [8]; 70.3 µM in [9]; 22 µM in test [10]; greater than 100 µM in test [11].
Regarding `c1ccc2c(CSCc3cccc4ccccc34)cccc2c1`, the TGI in test [1], in [2], in test [3], in test [5], in test [6] and in [8] was greater than 100 µM each time. Also, the TGI in test [9], in test [10] and in test [11] was greater than 100 µM each time.
For `Cc1c2ccccc2c(C2C3C(=O)N(c4ccc(Br)cc4)C(=O)C3ON2C(C(N)=O)c2ccccc2)c2ccccc12` (stereo not given), the TGI in test [1] is 58.5 µM; in [2] it was 18.7 µM; in test [3] it was greater than 100 µM; in [4], 24.4 µM; in [5] it was 11.7 µM; in test [7] it was 4.63 µM. Further, the TGI in test [8] was 36.4 µM; in test [9] it was 41.4 µM; in test [10], greater than 100 µM; in [11], 18.6 µM.
For the molecule `COc1cc2c(c(OC)c1OC)-c1ccc(OC)c(=O)cc1C(NC(=O)COc1ccccc1)CC2` (stereo not given), the TGI in test [1] was 0.0874 µM; in [2] it was greater than 100 µM; in test [3] it was 53 µM; in test [4], greater than 49.4 µM; in [5], 2.46 µM; in test [6] it was greater than 93.7 µM. Further, the TGI in test [7] was 38.3 µM; in test [8], greater than 100 µM; in [9], 0.4 µM; in [10], 60.8 µM; in test [11] it was greater than 82.6 µM.
In the case of `C[C@@H]1C[C@H]2[C@@H]3CCC4=CC(=O)C=C[C@]4(C)[C@@]3(F)[C@@H](O)C[C@]2(C)[C@@]1(O)C(=O)CO`, the TGI in [2], in test [3], in [6], in test [10] and in test [11] was greater than 100 µM in each case.
In the case of `O=C(C=P(c1ccccc1)(c1ccccc1)c1ccccc1)c1ccc(-c2cccs2)cc1`, the TGI turned out to be 17.4 µM in test [1]; 24.7 µM in test [2]; 4.7 µM in [3]; 11.7 µM in [4]; 10.8 µM in [5]; 11.3 µM in test [6]. The TGI is 5.07 µM in test [7]; 9.61 µM in test [8]; 23.1 µM in [9]; 15.9 µM in [10]; 19.6 µM in [11].
For `CCOC(=O)c1cnc(N(C)C)nc1SC(=N)N`, the TGI in test [1], in test [2], in test [3], in [4], in test [5] and in test [6] was greater than 100 µM throughout. Further, the TGI in test [7], in test [8], in test [9], in [10] and in test [11] was greater than 100 µM in each case.
Take `CCOc1cc(C2CC(c3ccc(NS(=O)(=O)c4cc([N+](=O)[O-])ccc4C)cc3)=NN2S(=O)(=O)c2cc([N+](=O)[O-])ccc2C)ccc1O` (stereo not given): the TGI in test [1] was greater than 100 µM; in [2], greater than 100 µM; in test [3] it was greater than 100 µM; in test [4], greater than 100 µM; in [5], 22 µM; in test [6], greater than 100 µM. Moreover, the TGI in test [7] is greater than 100 µM; in test [8], 65.1 µM; in test [9] it was greater than 100 µM; in test [10], greater than 100 µM; in test [11], greater than 100 µM.
Take `CN1C=c2c3c(ccc2=C2C=CC4C=C5OCOC5=CC4=C21)OCO3` (stereo not given): the GI50 was 1.79 µM and 8.51 µM in [1]; 0.253 µM and 1.74 µM in [3]; 1.48 µM and 4.4 µM in test [4]; 2.24 µM and 14.1 µM in test [5]; 1.77 µM and 12 µM in test [6]; 0.625 µM and 2.24 µM in [7]. Also, the GI50 was 1.58 µM and 6.13 µM in test [9]; 1.37 µM and 3.01 µM in test [10]. Moreover, the TGI is 3.2 µM and 21.9 µM in test [1]; 2.89 µM and 3.2 µM in [2]; 2.89 µM and 17.4 µM in test [4]; 5.04 µM and 27.1 µM in test [5]; 3.2 µM and 24.9 µM in test [6]; 1.86 µM and 6.79 µM in test [7]. Besides, the TGI was 4.31 µM and 5.01 µM in test [8]; 3.27 µM and 14.3 µM in test [9]; 3.17 µM and 3.33 µM in [11].
As to `Cc1ccc2c(c1)SC1=Nc3sc4cc(C)ccc4[n+]3CN12`, the TGI in [2] was greater than 100 µM; in test [4] it was greater than 100 µM; in test [5], 87.1 µM; in [6] it was 48 µM; in test [7], 6.17 µM; in test [8], 8.75 µM. Moreover, the TGI in test [9] and in [11] was greater than 100 µM in each case.
As to `Cc1ccc(O)c(Cc2nc3ccccc3nc2-c2cccc(Cl)c2)c1`, the TGI in test [1] was greater than 100 µM; in test [2] it was 46.1 µM; in test [3], 51.4 µM; in [4] it was greater than 100 µM; in test [6] it was greater than 100 µM; in [7], 79.4 µM. The TGI in test [8], in test [9], in [10] and in [11] was greater than 100 µM throughout.
For `O=C(CSCC(=O)N/N=C/c1ccc2c(c1)OCO2)N/N=C/c1ccc2c(c1)OCO2`, the TGI in test [1] is greater than 100 µM; in test [2], greater than 100 µM; in test [3] it was 56.8 µM; in [4], greater than 100 µM; in test [5] it was greater than 100 µM; in test [6], greater than 100 µM. Further, the TGI in [7], in test [8], in [9], in test [10] and in test [11] was greater than 100 µM in each case.
`COc1ccccc1/C=C/c1ccnc2ccccc12`: the TGI came to 27.2 µM in test [1]; 25 µM in test [2]; 28 µM in test [3]; 17.5 µM in test [4]; 29.5 µM in test [5]; 30.9 µM in [6]. For the same molecule, the TGI is 37.8 µM in test [7], 32.4 µM in [9], 30.7 µM in test [10] and 36 µM in test [11].
Take `CCCCc1ccc(N=C(N)N)cc1`: the TGI is 87.3 µM in test [1]; greater than 100 µM in [2]; 46.3 µM in test [4]; greater than 100 µM in [5]; 63.9 µM in [6]; 45.2 µM in test [7]. The TGI in test [8] is greater than 100 µM; in test [9], greater than 100 µM; in [10] it was 83.4 µM; in [11] it was greater than 100 µM.
With `CC(=O)O[C@@H]1C[C@]2(C(=O)c3ccccc3)C(=O)C(=O)S[C@]12c1ccccc1`, the TGI in [1], in test [2], in [3], in [4], in [5] and in test [6] was greater than 100 µM in each case. For the same molecule, the TGI in [7] was 99.4 µM; in test [8] it was 94.3 µM; in test [9], greater than 100 µM; in [10], 85 µM; in test [11] it was greater than 100 µM.
As for `C[n+]1cccc(NC(=O)c2ccc(NC(=O)C34CCC(C(=O)Nc5ccc(C(=O)Nc6ccc[n+](C)c6)cc5)(CC3)CC4)cc2)c1`, the TGI in [1], in test [2], in test [3], in [5], in test [7] and in test [10] was greater than 100 µM throughout. In addition, in test [11], the TGI was greater than 100 µM.
